What was measured:
Format in all cases: in vivo, dog
[1] = test system: client-owned dogs with a history of acute anxiety and fear associated with noise due to fireworks; test: Clinical field study in dogs: noise anxiety (fireworks); settings: 30 μg/kg orally 1-3 times as needed, New Year's Eve
Description: (§1) Three randomized, double-blind, placebo-controlled, clinical field studies were conducted for evaluating the effectiveness and clinical safety of tasipimidine for the treatment of situational anxiety and fear-based behaviors in dogs triggered by events such as travel, noise, or owner departure. Across all three studies dogs were randomized to receive either 0.03 mg/kg of tasipimidine (n=131) or placebo (n=133) orally at home by the owner. Assessments were made using video (in the case of when left alone or car travel) or by the caretaker present during the fear inducing incident (in the case of noise anxiety). Both were assessed using a numerical rating scale with scores 1-5.
The first study was conducted in client-owned dogs with a history of acute anxiety and fear associated with noise due to fireworks. Dogs receive tasipimidine 30 μg/kg or placebo 1-3 times as needed with at least 3 hours between doses during New Year's Eve. The primary efficacy variable was the owner's assessment of the effect of study treatment on the dog's signs of acute anxiety and fear due to fireworks. The assessment was made once at least 2 hours after the last dose or at 1:00 A.M., whichever occurred later.

[2] = test system: client-owned dogs suffering from separation anxiety; test: Clinical field study in dogs: separation anxiety; settings: 30 μg/kg orally 1-3 times a day as needed, 5-7 days a week for 5 weeks
Description: as §1
The second study was conducted in client-owned dogs suffering from separation anxiety. Dogs received tasipimidine 30 μg/kg or placebo 1-3 times a day as needed 5-7 days a week for 5 weeks. The primary efficacy variable was the owner's assessment of the effect of the study treatment on acute anxiety related to the owner's departure. Dog owners assessed the effect of the study treatment on their dog's signs of separation anxiety from video recordings after returning home. The owner also took into account the signs of the dog's behavior during the separation (e.g., destruction and elimination) that were not visible in the video recording.

[3] = test system: client-owned dogs suffering from travel anxiety; test: Clinical field study in dogs: travel anxiety; settings: single oral dose 30 μg/kg approximately 1 hour before car travel
Description: as §1
The third study was conducted in client-owned dogs suffering from travel anxiety. Dogs received a single dose of tasipimidine 30 μg/kg or placebo approximately 1 hour before car travel. The primary efficacy variable was the external observer's assessment of signs of anxiety and fear from video recordings. The owner assessed the treatment effect based on the dog's behavior during the first 10 minutes of car travel.

[4] = test system: dogs; test: Clinical safety in the three clinical field studies in dogs; settings: 30 μg/kg orally
Description: as §1

SMILES: COc1cccc2c1CCOC2C1=NCCN1 (stereo not shown) [Tasipimidine, 2-(5-methoxyisochroman-1-yl)-4,5-dihydro-1H-imidazole]
- treatment effect compared with placebo: owner's assessment of signs of acute anxiety and fear due to fireworks [1]: statistically significant treatment effect in favor of tasipimidine
- treatment effect compared with placebo: owner's assessment of acute anxiety related to the owner's departure [2]: statistically significant treatment effect in favor of tasipimidine
- treatment effect compared with placebo: external observer's assessment of signs of anxiety and fear from video recordings [3]: statistically significant treatment effect in favor of tasipimidine
- marked ataxia or clinical sedation [4]: did not produce marked ataxia or clinical sedation

— patent US20240165083A1, “TASIPIMIDINE FORMULATIONS AND USE THEREOF” (ORION CORPORATION, priority 2021, published 2024)
